# Results: publication PMC8235719, “New RAD51 Inhibitors to Target Homologous Recombination in Human Cells” (Genes, 2021)
# Read-outs that look alike come from different tables or passages of the source.
# Assays:
# [1] = test system: HR in human U-2 OS IndDR-GFP cells; test: Inducible I-SceI DR-GFP assay (IndDR-GFP), inhibition of HR; format: cell-based; settings: Homo sapiens, U2OS; U-2 OS IndDR-GFP cells; 24 h with compound; ± SD; read-out: IC50, efficiency of HR inhibition in IndDR-GFP assay
# Method: Exponentially growing U-2 OS IndDR-GFP cells were seeded at a density of 2 × 10^5 cells/well into 6-well plates with DMEM media containing 80 µg/mL G418 and indicated concentrations of RAD51i(s). For I-SceI induced samples, the media were supplemented with 0.5 µM Shield1 (Clontech, Mountain View, CA, USA) with 100 nM triamcinolone acetonide (Sigma, St. Louis, MO, USA). After 24 h of incubation, the media were removed, cells were washed with the DMEM, and the incubation continued for 48 h in DMEM containing 100 units/mL penicillin, 100 µg/mL streptomycin, and 80 µg/mL G418. Then, cells were trypsinized, trypsin solution was neutralized with an equal volume of media, and 10% formaldehyde solution in PBS was added for fixation to reach a final concentration of formaldehyde of 3.3%. The yield of GFP-positive cells indicative of HR activity was measured by flow cytometry with the Guava easyCyte system, and the data were analyzed with the InCyte program (Millipore; Burlington, VT, USA).
# [2] = test system: HR in U-2 OS DR-GFP cells; test: Canonical DR-GFP assay, inhibition of HR; format: cell-based; settings: Homo sapiens, U2OS
# HsRAD51 [3] = target: T1, HsRAD51 (Homo sapiens, UniProt Q06609); parameters: method as in PMID 22380680; settings: earlier work; cited from earlier work
# T1 sequence (Q06609 1-339): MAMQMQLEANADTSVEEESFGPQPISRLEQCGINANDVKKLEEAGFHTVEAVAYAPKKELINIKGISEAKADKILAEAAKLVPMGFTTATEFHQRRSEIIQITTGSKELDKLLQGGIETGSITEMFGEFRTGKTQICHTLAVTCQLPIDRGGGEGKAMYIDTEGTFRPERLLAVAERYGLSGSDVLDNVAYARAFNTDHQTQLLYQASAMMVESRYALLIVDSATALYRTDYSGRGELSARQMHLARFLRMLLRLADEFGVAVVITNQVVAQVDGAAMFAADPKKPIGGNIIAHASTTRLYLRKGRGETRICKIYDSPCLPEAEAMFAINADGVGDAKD
# [4] = test system: RAD51 foci in U-2 OS IndDR-GFP cells; parameters: method as in PMID 24971740; settings: earlier work; cited from earlier work
# HsRAD51 [5] = target: T1, HsRAD51; test: Surface plasmon resonance (SPR) binding to immobilized RAD51; settings: 25 °C, equilibrium analysis, ± SD, read-out: KD, equilibrium dissociation constant of direct binding to hRAD51
# Method: The binding of RAD51i to RAD51 was examined using a ProteOn XPR36 SPR Protein Interaction Array System (Bio-Rad, Hercules, CA, USA) at 25 °C. ProteOn GLH sensor chips were preconditioned with two 10 s pulses of 50 mM NaOH, 100 mM HCl, and 0.5% SDS followed by the system equilibration with the running buffer (20 mM sodium phosphate, 150 mM NaCl, and 0.005% Tween 20, pH 7.4). The surface of a GLH sensorchip was subsequently activated with a 1:100 dilution of a 1:1 mixture of 0.2 M EDC and 0.05 M Sulfo-NHS. Purified HsRAD51 was diluted to 500 µg/mL in 10 mM sodium acetate, pH 5.5, and injected immediately after chip activation across the ligand flow channels at 30 µL/min for 5 min. Unreacted protein was washed out, and the excess of unreacted ester groups on the sensor surface was capped by an injection of 1 M ethanolamine-HCl, pH 8.0, at 5 µL/min for 5 min. A reference surface to correct for nonspecific binding was similarly created by immobilizing an IgG b12 anti-HIV-1 gp120 antibody (IgG b12 anti-HIV-1 gp120; was obtained through the NIH AIDS Reagent Program, Division of AIDS, NIAID, NIH: Anti-HIV-1 gp120 Monoclonal (IgG1 b12) from Drs. Dennis Burton and Carlos Barbas). Serial dilutions of the compounds were prepared in the running buffer supplemented with 8% DMSO and injected at a flow rate of 100 μL/min for a 1 min association phase, followed by a 5 min dissociation phase using the “one-shot kinetics” functionality of the ProteOn instrument. Data were analyzed with ProteOn Manager Software version 3.0 (Bio-Rad; Hercules, CA, USA). The responses from the reference flow cell were subtracted to account for the non-specific binding and injection artifacts. Experiments were repeated at least three times. The equilibrium dissociation constants (KD) for the interactions were calculated in ProteOn Manager Version 3.1.0.6 (Bio-Rad; Hercules, CA, USA) using the equilibrium analysis function.
# MDA-MB-231 cells = test: Cell viability assay (Guava ViaCount flow cytometry), MDA-MB-231; format: cell-based, human; settings: Homo sapiens
# Method: (§1) For all cell viability experiments, except experiments involving MMS treatment, cells were seeded into the media containing indicated concentrations of tested compounds or corresponding amounts of DMSO in controls. The concentration of DMSO in media was 0.1%. MDA-MB-231 cells were seeded into 24-well plates at 3.5 × 10^4 cells/well for cells for a 4-day treatment or at 5000 cells/well for a 10-day treatment. MCF 10A cells were seeded into 24-well plates at 1.5 × 10^4 cells/well for a 4-day treatment or at 500 cells/well for a 10-day treatment. In the case of 10-day treatments, the media with compounds were renewed twice on the 4th and the 7th days of treatments. After completion of the treatments, cells were harvested, and their viability was determined by flow cytometry with Guava ViaCount reagent (Luminex; Austin, TX USA). Data were analyzed using the Guava ViaCount software (Millipore; Burlington, VT, USA). The IC50 values were calculated using the GraphPad Prism 5 software (San Diego, CA, USA).
# Solubility in DMSO = format: physicochemical; settings: organic solvent or mixture; in 100% DMSO; read-out: Maximal soluble concentration
# MCF 10A cells = test: Cell viability assay (Guava ViaCount flow cytometry), MCF 10A; format: cell-based, human; settings: 4-day treatment
# Method: as §1
compound,measurement,setting,value
O=c1c2ccccc2nc(/C=C/c2cccnc2)n1Cc1ccccc1 [B02],IC50,[1],17.7 ± 3.89 µM
same,IC50,[2],17.9 ± 3.5 µM
same,Binding to RAD51 in vitro by SPR,HsRAD51 [3],binds to RAD51 directly in vitro
same,RAD51 foci formation induced by cisplatin,[4],disrupts RAD51 foci formation
O=c1nc(/C=C/c2cccnc2)n(Cc2cccc(Br)c2)c2ccccc12 [m-Br-B02-iso],IC50,[1],0.9 ± 0.18 µM
same,Kd,HsRAD51 [5],8.4 ± 1.8 µM
O=c1nc(/C=C/c2cccnc2)n(Cc2cccc(I)c2)c2ccccc12 [m-I-B02-iso],IC50,[1],0.86 ± 0.02 µM
O=c1nc(/C=C/c2cccnc2)n(Cc2ccccc2Br)c2ccccc12 [o-Br-B02-iso],IC50,[1],4.6 ± 1.28 µM
O=c1nc(/C=C/c2cccnc2)n(Cc2ccccc2Cl)c2ccccc12 [o-Cl-B02-iso],IC50,[1],5.56 ± 0.49 µM
"O=C(c1cc(Cc2n[nH]c(=O)c3ccccc23)ccc1F)N1CCN(C(=O)C2CC2)CC1 [olaparib, reference compound]",IC50,"MDA-MB-231 cells; MDA-MB-231, 240 h, MDA-MB-231, 10-day treatment, olaparib only (DMSO), read-out: IC50 of olaparib, cell viability",8.6 µM
same,IC50,"MDA-MB-231 cells; MDA-MB-231, 240 h, MDA-MB-231 transfected with antiRAD51 siRNA_A, 10 days olaparib, read-out: IC50 of olaparib, cell viability",3.2 µM
same,IC50,"MDA-MB-231 cells; MDA-MB-231, 240 h, MDA-MB-231 transfected with scrambled siRNA, 10 days olaparib, read-out: IC50 of olaparib, cell viability",6.3 µM
O=c1nc(/C=C/c2cccnc2)n(Cc2ccc(Br)cc2)c2ccccc12 [p-Br-B02-iso],IC50,[1],0.8 ± 0.1 µM
same,solubility,Solubility in DMSO,500 µM
O=c1nc(/C=C/c2cccnc2)n(Cc2ccc(I)cc2)c2ccccc12 [p-I-B02-iso],IC50,[1],0.72 ± 0.07 µM
same,Kd,HsRAD51 [5],1.4 ± 0.6 µM
same,IC50,"MDA-MB-231 cells; MDA-MB-231, 96 h, MDA-MB-231, 4-day treatment, read-out: IC50 of cell viability",1.1 µM
same,Times lower sensitivity of MCF 10A compared with MDA-MB-231,MCF 10A cells; ratio of IC50,approximately 3
same,IC50,"MCF 10A cells; Homo sapiens, 96 h, MCF 10A",2.7 µM
